These results are taken from US20230192717A1, “COMPOSITIONS AND METHODS OF MODULATING SHORT-CHAIN DEHYDROGENASE ACTIVITY” (RODEO THERAPEUTICS CORPORATION, priority 2020, published 2023).

The target in one series is hERG channels (Homo sapiens, UniProt Q12809). Nature of the series: hERG test on manual patch-clamp system. In kind it is cell-based. To be noted: CHO-K1 cells expressing hERG, whole-cell patch clamp, room temperature. On the procedure:
Visual check for precipitation was conducted before testing.

Series [1] can be described thus: kinetic aqueous solubility in pH 7 citrate buffer. In kind it is physicochemical. The settings on record: kinetic from dmso stock, pH 7 citrate buffer solution, read-out: Kinetic Aq solubility (μM pH 7).
In the next series the target is T1, recombinant 15-PGDH (Homo sapiens, UniProt P15428).
T1 sequence (P15428 1-266): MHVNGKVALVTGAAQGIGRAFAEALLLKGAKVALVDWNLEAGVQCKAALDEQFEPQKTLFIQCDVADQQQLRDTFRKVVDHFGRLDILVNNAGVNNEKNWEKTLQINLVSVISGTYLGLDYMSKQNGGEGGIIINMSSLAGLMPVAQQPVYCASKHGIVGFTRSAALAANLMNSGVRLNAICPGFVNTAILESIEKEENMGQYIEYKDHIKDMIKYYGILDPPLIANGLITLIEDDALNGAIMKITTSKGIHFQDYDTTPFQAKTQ
Briefly: inhibition of enzymatic activity of recombinant 15-PGDH in vitro. In kind it is biochemical. The settings on record: recombinant human 15-PGDH. From the text: The Recombinant 15-PGDH is human unless otherwise specified.

Another series has as its target T2, CYP 2D6 (Homo sapiens, UniProt P10635).
T2 construct: pooled human liver microsomes (Corning, Xenotech, or other qualified vendors; pooled from multiple donors); tissue Corning, Xenotech, or other qualified vendors; host or cells: pooled human liver microsomes
Nature of the series: microsomal CYP inhibition, 2D6. In kind it is in vitro ADME. To be noted: human liver microsomes 0.2 mg/ml, substrate Dextromethorphan. On the procedure:
(§1) CYP450 enzymatic activities was determined using 5in1 marker substrate cocktail. For each reaction, enzyme activities in the presence of the test compound at 8 concentrations (0, 0.05, 0.15, 0.5, 1.5, 5.0, 15.0, or 50.0 μM) were measured in singlet (n=1). A known inhibitor for each isoform, tested at a single concentration (3.0 μM) in duplicate (n=2), was included as positive control. Incubation mixture containing pooled human liver microsomes (Corning, Xenotech, or other qualified vendors; pooled from multiple donors) at 0.2 mg/ml, marker substrates and standard inhibitors (listed in the following table) or the test compound was warm up at 37° C. for 10 minutes. The reactions were initiated by the addition of the NADPH (1.0 mM). […] After the mixture was incubated at 37° C. for 10 minutes, ice cold acetonitrile containing the internal standard (IS) was added to terminate the reactions. The metabolites generated from the marker substrates were measured by LC-MS/MS and were assessed based on peak area ratios of the analyte to IS. The remaining activity (expressed as % of control activity) were calculated; IC50 values of the test compound were determined using SigmaPlot or XLfit with 3- or 4-parameter logistic sigmoidal equation.
On the technique in general: Liver microsomes are vesicles of endoplasmic reticulum, rich in cytochrome P450 enzymes.

In another series the target is T3, CYP 2C19 (Homo sapiens, UniProt P33261).
T3 construct: pooled human liver microsomes (Corning, Xenotech, or other qualified vendors; pooled from multiple donors); tissue Corning, Xenotech, or other qualified vendors; host or cells: pooled human liver microsomes
Nature of the series: microsomal CYP inhibition, 2C19. In kind it is in vitro ADME. The settings on record: human liver microsomes 0.2 mg/ml, substrate S-Mephenytoin. The method, then:
as §1

Another series addresses T4, CYP 2C9 (Homo sapiens, UniProt P11712).
T4 construct: pooled human liver microsomes (Corning, Xenotech, or other qualified vendors; pooled from multiple donors); tissue Corning, Xenotech, or other qualified vendors; host or cells: pooled human liver microsomes
Briefly: microsomal CYP inhibition, 2C9. In kind it is in vitro ADME. To be noted: human liver microsomes 0.2 mg/ml, substrate Diclofenac. The method, then:
as §1

For a further series, the target named is T5, CYP 3A4 (Homo sapiens, UniProt P08684).
T5 construct: pooled human liver microsomes (Corning, Xenotech, or other qualified vendors; pooled from multiple donors); tissue Corning, Xenotech, or other qualified vendors; host or cells: pooled human liver microsomes
Nature of the series: microsomal CYP inhibition, 3A4. In kind it is in vitro ADME. To be noted: human liver microsomes 0.2 mg/ml, substrate Midazolam; read-out: CYP inhibition (μM) 3A4 (3A4M). The method, then: as §1

The nature of the next series: Caco-2 permeability test. In kind it is in vitro ADME. To be noted: human, pH 7.4, Caco-2, 2.0 μM, A to B and B to A, pH 7.40, read-out: Caco summary: ER (efflux ratio). (In general: Passage across Caco-2 layers is used to estimate intestinal permeability.)
A further series concerns Caco-2 Cells. Nature of the series: Caco-2 permeability test. In kind it is in vitro ADME. To be noted: Caco-2, 2.0 μM, 2 hours, pH 7.40.
A short description of series [2]: in vitro microsome metabolic stability, mouse (MLM). In kind it is in vitro ADME. The settings on record: pooled CD-1 mouse liver microsomes, pH 7.4; CD-1 mouse liver microsomes 0.5 mg/mL, 1 μM compound, NADPH, 37° C.; read-out: MLM (T1/2, min). The method, then: (§2) Human microsome stability (HLM), mouse microsome stability (MLM), hERG IC50, Caco-2 permeability, CYP inhibition, and pharmacokinetic (PK) properties were determined on selected compounds of the disclosure.
(§3) Pooled liver microsomes (Human and CD-1 mouse) were purchased from Corning or XenoTech LLC and stored at −80° C. freezer before use. NADPH cofactor system—β-Nicotinamide adenine dinucleotide phosphate reduced form, tetrasodium salt, NADPH·4Na(NADPH) (Vendor: Chem-impex international, Cat.No. 00616) was used. Control compounds were Testosterone, Diclofenac, Propafenone.
(§4) Stock solution—Test compound was 10 mM in DMSO (Dimethyl Sulfoxide).
(§5) Working solution—Dilute 5 μL of compound or control from stock solution (10 mM) with 495 μL 100% Acetonitrile (Conc.: 100 μM, 99% ACN, 1% DMSO; final concentration in reaction system: 1 μM, 0.99% ACN, 0.01% DMSO).
(§6) Potassium Phosphate Buffer 100 mM (pH 7.4±0.1)
(§7) NADPH Cofactor: The appropriate amount of NADPH powder was weighed, and diluted into MgCl2 solution (work solution concentration: 10 mM NADPH and 10 mM MgCl2; final concentration in reaction system: 1 mM NADPH and 1 mM MgCl2).
(§8) Liver microsome preparation (0.5 mg/mL): Pipette appropriate volume of microsome (20 mg/mL) to 100 mM buffer solution (Conc.: 0.56 mg/mL, Final concentration in reaction system: 0.5 mg/mL).
(§9) Automatic Workstation was used for all liquid handling and incubation.

The nature of series [3]: in vitro microsome metabolic stability, human (HLM). In kind it is in vitro ADME. To be noted: pooled human liver microsomes, pH 7.4; human liver microsomes 0.5 mg/mL, 1 μM compound, NADPH, 37° C.; read-out: HLM (T1/2, min). On the procedure: as §2, §3, §4, §5, §6, §7, §8, §9
A further series addresses T6, CYP 1A2 (Homo sapiens, UniProt P05177).
T6 construct: pooled human liver microsomes (Corning, Xenotech, or other qualified vendors; pooled from multiple donors); tissue Corning, Xenotech, or other qualified vendors; host or cells: pooled human liver microsomes
T6 sequence (P05177 1-516): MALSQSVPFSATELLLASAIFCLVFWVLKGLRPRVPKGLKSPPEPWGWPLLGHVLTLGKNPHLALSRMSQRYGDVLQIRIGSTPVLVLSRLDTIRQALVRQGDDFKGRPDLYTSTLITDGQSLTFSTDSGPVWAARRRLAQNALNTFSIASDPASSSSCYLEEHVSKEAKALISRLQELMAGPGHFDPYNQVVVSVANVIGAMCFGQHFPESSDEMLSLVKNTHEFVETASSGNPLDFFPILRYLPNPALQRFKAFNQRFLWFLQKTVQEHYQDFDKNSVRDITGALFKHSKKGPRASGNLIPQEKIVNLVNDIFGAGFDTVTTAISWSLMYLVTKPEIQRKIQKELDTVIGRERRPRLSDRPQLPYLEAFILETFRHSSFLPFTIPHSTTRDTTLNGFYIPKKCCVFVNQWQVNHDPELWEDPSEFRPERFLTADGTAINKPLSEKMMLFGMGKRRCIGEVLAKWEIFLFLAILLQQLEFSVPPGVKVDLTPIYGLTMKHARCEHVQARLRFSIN
Nature of the series: microsomal CYP inhibition, 1A2. In kind it is in vitro ADME. To be noted: human liver microsomes 0.2 mg/ml, substrate Phenacetin. The method, then: as §1

Converted amounts (≈) assume the structure as drawn.

Sequence of hERG channels (Q12809 whole entry): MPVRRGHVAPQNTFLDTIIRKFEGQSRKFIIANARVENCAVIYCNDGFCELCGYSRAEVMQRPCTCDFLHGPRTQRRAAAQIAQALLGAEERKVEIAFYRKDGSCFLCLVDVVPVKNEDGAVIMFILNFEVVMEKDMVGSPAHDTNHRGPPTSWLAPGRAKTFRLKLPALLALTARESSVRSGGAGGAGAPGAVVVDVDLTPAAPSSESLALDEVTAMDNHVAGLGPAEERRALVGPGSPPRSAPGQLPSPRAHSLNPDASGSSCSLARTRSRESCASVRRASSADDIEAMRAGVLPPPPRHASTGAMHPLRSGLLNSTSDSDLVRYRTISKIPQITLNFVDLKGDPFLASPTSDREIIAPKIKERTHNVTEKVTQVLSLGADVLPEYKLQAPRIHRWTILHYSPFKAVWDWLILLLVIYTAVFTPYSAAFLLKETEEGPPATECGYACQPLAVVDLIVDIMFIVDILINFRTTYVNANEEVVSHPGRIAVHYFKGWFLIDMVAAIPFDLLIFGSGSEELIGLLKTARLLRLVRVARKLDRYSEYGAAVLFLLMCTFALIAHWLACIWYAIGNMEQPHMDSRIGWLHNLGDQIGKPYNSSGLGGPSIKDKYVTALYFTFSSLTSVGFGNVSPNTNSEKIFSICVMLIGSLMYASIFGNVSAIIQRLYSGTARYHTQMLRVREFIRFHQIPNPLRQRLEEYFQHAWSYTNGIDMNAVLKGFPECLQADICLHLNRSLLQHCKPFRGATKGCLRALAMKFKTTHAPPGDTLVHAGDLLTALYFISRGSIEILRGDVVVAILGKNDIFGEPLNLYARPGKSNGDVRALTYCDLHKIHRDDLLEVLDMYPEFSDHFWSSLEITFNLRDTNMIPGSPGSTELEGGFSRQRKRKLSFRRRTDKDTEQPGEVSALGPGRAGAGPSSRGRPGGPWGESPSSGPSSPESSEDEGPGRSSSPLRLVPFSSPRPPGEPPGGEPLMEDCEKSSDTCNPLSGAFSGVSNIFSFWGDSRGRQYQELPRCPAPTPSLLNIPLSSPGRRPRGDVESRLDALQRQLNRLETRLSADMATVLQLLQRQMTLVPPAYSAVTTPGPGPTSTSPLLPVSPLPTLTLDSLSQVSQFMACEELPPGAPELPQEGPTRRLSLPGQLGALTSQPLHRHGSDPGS
T5 sequence (P08684 whole entry): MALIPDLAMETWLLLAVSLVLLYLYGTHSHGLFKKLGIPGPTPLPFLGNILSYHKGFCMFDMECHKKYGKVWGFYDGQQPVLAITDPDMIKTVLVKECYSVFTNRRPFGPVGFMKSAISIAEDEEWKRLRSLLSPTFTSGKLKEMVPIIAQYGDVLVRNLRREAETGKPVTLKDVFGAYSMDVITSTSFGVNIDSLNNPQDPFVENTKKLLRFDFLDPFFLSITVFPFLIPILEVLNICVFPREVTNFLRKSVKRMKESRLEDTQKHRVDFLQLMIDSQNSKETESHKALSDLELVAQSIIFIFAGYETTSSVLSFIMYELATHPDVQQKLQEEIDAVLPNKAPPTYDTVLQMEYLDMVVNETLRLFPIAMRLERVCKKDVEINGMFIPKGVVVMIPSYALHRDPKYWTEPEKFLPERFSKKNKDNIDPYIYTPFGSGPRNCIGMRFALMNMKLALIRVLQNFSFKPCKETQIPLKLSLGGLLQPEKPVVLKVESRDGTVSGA
T4 sequence (P11712 whole entry): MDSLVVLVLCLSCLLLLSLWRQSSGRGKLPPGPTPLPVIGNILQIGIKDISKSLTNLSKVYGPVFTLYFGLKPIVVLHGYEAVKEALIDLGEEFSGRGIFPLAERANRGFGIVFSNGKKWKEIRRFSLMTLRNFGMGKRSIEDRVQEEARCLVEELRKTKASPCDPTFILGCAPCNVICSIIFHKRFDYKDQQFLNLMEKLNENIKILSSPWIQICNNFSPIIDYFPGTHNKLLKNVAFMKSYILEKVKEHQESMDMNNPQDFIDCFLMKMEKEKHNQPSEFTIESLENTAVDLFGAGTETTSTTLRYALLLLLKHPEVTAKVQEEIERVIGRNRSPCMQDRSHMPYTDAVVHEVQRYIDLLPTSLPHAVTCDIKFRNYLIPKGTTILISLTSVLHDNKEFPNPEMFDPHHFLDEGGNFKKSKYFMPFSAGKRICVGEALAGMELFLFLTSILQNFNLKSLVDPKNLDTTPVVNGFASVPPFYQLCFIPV
T3 sequence (P33261 whole entry): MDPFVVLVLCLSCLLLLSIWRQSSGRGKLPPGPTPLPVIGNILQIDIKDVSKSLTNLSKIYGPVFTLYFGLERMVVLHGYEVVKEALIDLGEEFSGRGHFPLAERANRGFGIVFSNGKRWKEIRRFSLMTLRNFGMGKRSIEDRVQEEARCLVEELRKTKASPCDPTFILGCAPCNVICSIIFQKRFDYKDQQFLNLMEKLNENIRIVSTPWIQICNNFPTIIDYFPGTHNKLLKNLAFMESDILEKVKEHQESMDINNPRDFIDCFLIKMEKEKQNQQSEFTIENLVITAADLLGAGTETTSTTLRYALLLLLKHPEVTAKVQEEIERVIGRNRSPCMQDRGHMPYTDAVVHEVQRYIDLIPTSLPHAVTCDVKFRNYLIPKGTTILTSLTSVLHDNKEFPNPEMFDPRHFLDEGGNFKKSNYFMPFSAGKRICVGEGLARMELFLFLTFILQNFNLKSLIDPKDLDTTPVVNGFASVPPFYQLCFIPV
T2 sequence (P10635 whole entry): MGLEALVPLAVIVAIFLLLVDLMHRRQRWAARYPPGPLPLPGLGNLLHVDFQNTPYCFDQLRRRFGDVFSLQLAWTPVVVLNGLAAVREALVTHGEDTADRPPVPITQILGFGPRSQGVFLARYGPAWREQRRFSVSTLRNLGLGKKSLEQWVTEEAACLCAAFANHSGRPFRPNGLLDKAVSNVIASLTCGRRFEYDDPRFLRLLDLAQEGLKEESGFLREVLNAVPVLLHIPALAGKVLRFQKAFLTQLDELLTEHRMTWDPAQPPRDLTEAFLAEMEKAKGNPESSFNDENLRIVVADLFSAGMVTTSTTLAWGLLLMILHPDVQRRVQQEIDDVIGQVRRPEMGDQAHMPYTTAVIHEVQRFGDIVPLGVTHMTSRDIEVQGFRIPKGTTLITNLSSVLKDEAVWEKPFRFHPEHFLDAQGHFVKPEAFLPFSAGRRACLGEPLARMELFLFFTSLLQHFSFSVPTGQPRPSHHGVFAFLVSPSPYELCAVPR
Description for Caco-2 Cells: Caco-2 Cells (obtained from ATCC) were seeded onto PET membranes of 96-well Insert Plates and cultured for 21-28 days before being used in the transport assays. The integrity of the monolayer was verified by performing Lucifer yellow rejection assay. The quality of the monolayer was verified by measuring the unidirectional (A to B) permeability of nadolol (low permeability marker), metoprolol (high permeability marker) and bi-directional permeability of digoxin (a P-glycoprotein substrate marker) in duplicate wells. Nadolol and metoprolol were tested at 2.0 μM, and digoxin was tested at 10.0 μM. […]
Dosing solutions were removed and mixed with transport buffer and Stop Solution containing an appropriate internal standard (IS) as T0 samples. […] All samples including T0 samples, donor samples and receiver samples were analyzed using LC/MS/MS. Concentrations of test compounds were expressed as peak area ratio of analytes to IS without a standard curve.
The A to B and B to A apparent permeability coefficients (Papp), % Solution Recovery, and Efflux ratio (ER) were determined.

`COCC[S@@+]([O-])c1sc2nc(-c3cnc4nn(C)cc4c3)c(C#N)c(-c3ccccc3)c2c1N` [Compound 9, (R)-3-amino-2-((2-methoxyethyl)sulfinyl)-6-(2-methyl-2H-pyrazolo[3,4-b]pyridin-5-yl)-4-phenylthieno[2,3-b]pyridine-5-carbonitrile]: the IC50 on hERG channels was 13 µM; on recombinant 15-PGDH, less than 2.5 nM. Moreover, in series [1], the kinetic solubility was 169 µM (≈ 82.6 µg/mL).

Turning to `COCC[S+]([O-])c1sc2nc(-c3cnc4nn(C)cc4c3)nc(C(C)C)c2c1N` (centres unmarked) [Compound 17, 4-isopropyl-6-((2-methoxyethyl)sulfinyl)-2-(2-methyl-2H-pyrazolo[3,4-b]pyridin-5-yl)thieno[2,3-d]pyrimidin-5-amine], the kinetic solubility in series [1] is 187 µM (≈ 80.5 µg/mL). For the same molecule, the IC50 at recombinant 15-PGDH is less than 2.5 nM.

For the molecule `COCC[S@@+]([O-])c1sc2nc(-c3cnc4nn(C)nc4c3)cc(C(C)(C)C)c2c1N` [Compound 29, 4-tert-butyl-2-[(R)-2-methoxyethanesulfinyl]-6-{2-methyl-2H-[1,2,3]triazolo[4,5-b]pyridin-6-yl}thieno[2,3-b]pyridin-3-amine], the IC50 is 29 µM on CYP 2D6; 11 µM on hERG channels; 1 µM at CYP 2C19; 4 µM at CYP 2C9; 39 µM at CYP 3A4; less than 2.5 nM on recombinant 15-PGDH. The molecule also registered an IC50 against CYP 1A2 greater than 50 µM. Moreover, the kinetic solubility in [1] came to 188 µM (≈ 83.6 µg/mL). Moreover, the efflux ratio at 2 h, 2 μM in the series “Caco-2 permeability test” stood at 1. Besides, in the series on Caco-2 Cells, the “Caco summary: permeability (high/low)” value is “high”. In addition, the half-life at 1 μM in series [2] came out at 86 min; in series [3] it was 100 min.

For the molecule `COCC[S+]([O-])c1sc2nc(-c3cnc4c(c3)OCCN4)cc(-c3ccnn3C)c2c1N` (centres unmarked) [Compound 32, 2-(2-methoxyethanesulfinyl)-4-(1-methyl-1H-pyrazol-5-yl)-6-{2H,3H,4H-pyrido[3,2-b][1,4]oxazin-7-yl}thieno[2,3-b]pyridin-3-amine], on recombinant 15-PGDH, the IC50 was less than 2.5 nM.

For the molecule `CC(C)c1cc(-c2cc(=O)n(C)cn2)nc2sc([S@+]([O-])C3CCC3)c(N)c12` [Compound 33, 6-{3-amino-2-[(R)-cyclobutanesulfinyl]-4-(propan-2-yl)thieno[2,3-b]pyridin-6-yl}-3-methyl-3,4-dihydropyrimidin-4-one], the IC50 at recombinant 15-PGDH was less than 2.5 nM.

Consider `COCC[S@@+]([O-])c1sc2nc(-c3cc(=O)n(C)cn3)cc(C(C)C)c2c1N` [Compound 34, 6-{3-amino-2-[(R)-2-methoxyethanesulfinyl]-4-(propan-2-yl)thieno[2,3-b]pyridin-6-yl}-3-methyl-3,4-dihydropyrimidin-4-one], for which the IC50 at recombinant 15-PGDH is less than 2.5 nM.

Consider `CC(C)(C)c1cc(-c2cnc(N)nc2)nc2sc([S@+]([O-])C3CCC3)c(N)c12` [Compound 35, 5-{3-amino-4-tert-butyl-2-[(R)-cyclobutanesulfinyl]thieno[2,3-b]pyridin-6-yl}pyrimidin-2-amine], for which, at recombinant 15-PGDH, the IC50 is less than 2.5 nM.

As to `COCC[S@@+]([O-])c1sc2nc(-c3cc(=O)n(C)cn3)cc(-c3ccccc3)c2c1N` [Compound A, reference compound], the solubility (kinetic) in series [1] is 64 µM (≈ 28.2 µg/mL). Besides, at recombinant 15-PGDH, the IC50 is less than 2.5 nM.

The term kinetic solubility denotes the concentration staying in solution when a stock, usually in DMSO, is diluted into the medium.
